Assay results taken from PubChem BioAssay (NCI).
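Where inhibition never reached the appropriate level, the endpoint shown equals the highest concentration tested. Otherwise, values were interpolated linearly from a five-concentration, 48-hour dose response in 96-well plates. GI50 marks 50% less growth. TGI: total growth inhibition.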

Key:
Test in all cases: DTP human tumour cell line panel, 48 h
U251 CNS = test system: U251 CNS
A498 renal = test system: A498 renal
CCRF-CEM leukemia = test system: CCRF-CEM leukemia
TK-10 renal = test system: TK-10 renal
SF-268 CNS = test system: SF-268 CNS
MDA-MB-231 breast = test system: MDA-MB-231 breast
T-47D breast = test system: T-47D breast
SN12C renal = test system: SN12C renal
RPMI-8226 leukemia = test system: RPMI-8226 leukemia
SR leukemia = test system: SR leukemia

SMILES | GI50 (U251 CNS) [µM] | TGI (U251 CNS) [µM] | GI50 (A498 renal) [µM] | TGI (A498 renal) [µM] | GI50 (CCRF-CEM leukemia) [µM] | TGI (CCRF-CEM leukemia) [µM] | GI50 (TK-10 renal) [µM] | TGI (TK-10 renal) [µM] | GI50 (SF-268 CNS) [µM] | TGI (SF-268 CNS) [µM] | GI50 (MDA-MB-231 breast) [µM] | TGI (MDA-MB-231 breast) [µM] | GI50 (T-47D breast) [µM] | TGI (T-47D breast) [µM] | TGI (SN12C renal) [µM] | TGI (RPMI-8226 leukemia) [µM] | TGI (SR leukemia) [µM] | GI50 (SN12C renal) [µM] | GI50 (SR leukemia) [µM] | GI50 (RPMI-8226 leukemia) [µM]
Cn1c2c(cc(S(=O)(=O)c3ccccc3)c1=O)CCc1c-2cnn1-c1ccc(Cl)cc1 | 2.1 | 3.98 | 1.06 | 5.03 | > 100 | > 100 | 2.26 | 5.17 | 2.24 | 5.12 | 2.24 | 5.27 | 2.06 | 5.5 | – | – | – | – | – | –
COc1ccc(N=c2ssc3c(=S)ssc23)cc1 | – | 96.7 | – | – | – | 28.2 | – | > 100 | – | > 100 | – | – | – | – | > 100 | 38.3 | 20.1 | – | – | –
CCN(C(=O)N1CCN(c2cc3c(cc2F)c(=O)c(C(=O)O)cn3C2CC2)CC1)c1nc(-c2ccc(C)cc2)cs1 | 1.04 | > 20.9 | – | 0.486 | 0.356 | > 100 | 2.7 | > 33.3 | 1.06 | > 100 | – | – | 2.11 | > 100 | > 100 | – | > 100 | 0.365 | 0.269 | –
CC(=O)OC1CCn2nnc(CO[Si](C)(C)C(C)(C)C)c21 (stereo unspecified) | – | > 100 | – | – | – | – | – | > 100 | – | – | – | – | – | – | > 100 | > 100 | > 100 | – | – | –
N#CC(C(=O)CCC(=O)Nc1cccc(Cl)c1)c1ccccc1 (stereo unspecified) | – | > 100 | – | > 100 | – | > 100 | – | > 100 | – | > 100 | – | – | – | – | > 100 | > 100 | > 100 | – | – | –
COc1cc(C(=O)C/C(CCC(=O)Nc2ccccc2[N+](=O)[O-])=N\NC(=O)CC#N)ccc1O | – | – | – | > 100 | – | > 100 | – | > 100 | – | > 100 | – | – | – | – | > 100 | > 100 | – | – | – | –
CN(C)c1ccc(C=C2C(=O)OC(C)(C)OC2=O)cc1Br | – | > 100 | – | – | – | > 100 | – | > 100 | – | > 100 | – | – | – | – | > 100 | > 100 | > 100 | – | – | –
COC1CC(OS(=O)(=O)c2ccc(C)cc2)C(OC(=O)c2ccccc2)C(C)O1 (stereo unspecified) | – | > 10 | > 100 | > 100 | > 100 | > 100 | > 100 | > 100 | – | > 100 | – | – | – | – | > 100 | > 100 | > 10 | > 100 | – | –
Cc1cc2c3ccc(C)[n+](C)c3ccc2n1C | 1.9 | 15.1 | 0.357 | 3.8 | – | – | 13 | > 100 | 2.99 | 15.9 | 5.14 | 55.3 | 4.76 | 49 | 15.9 | 23.3 | > 100 | 2.69 | 4.24 | 1.32
Cc1c(C#N)c(=O)[nH]c(=O)n1CCN1CCN(C(=O)NCCCCCCNC(=O)N2CCN(CCn3c(C)c(C#N)c(=O)[nH]c3=O)CC2)CC1 | – | > 100 | – | > 100 | – | > 100 | – | > 100 | – | – | – | – | – | – | > 100 | > 100 | – | – | – | –
O=C1c2ccccc2-c2c1c1ccc([N+](=O)[O-])cc1c(=O)n2CCCBr | > 100 | > 100 | – | – | – | – | – | – | > 100 | > 100 | > 100 | > 100 | > 100 | > 100 | > 100 | > 100 | > 100 | > 100 | 0.2 | 36
COc1ccc(C2=C(Cl)c3cc(OC)c(OC)cc3C2Cl)cc1OC (stereo unspecified) | – | 29 | – | – | – | 28.9 | – | 46.3 | – | – | – | – | – | – | 38.4 | 27.7 | – | – | – | –
c1ccc(SC(CCCCC(Sc2ccccc2)Sc2ccccc2)Sc2ccccc2)cc1 | – | > 100 | – | > 100 | – | > 100 | – | > 100 | – | > 100 | – | – | – | – | > 100 | > 100 | > 100 | – | – | –
C=CCOC1OC(CO[Si](C)(C)C(C)(C)C)C(OCc2ccccc2)C(OCc2ccccc2)C1OCc1ccccc1 (stereo unspecified) | – | > 100 | – | – | – | > 100 | – | > 100 | – | > 100 | – | – | – | > 100 | > 100 | > 100 | > 100 | – | – | –
COc1ccc(NC(=O)C/C(C)=N\N=C(N)N)c([N+](=O)[O-])c1 | – | > 100 | – | > 100 | – | > 100 | – | > 100 | – | > 100 | – | – | – | – | > 100 | > 100 | 48.8 | – | – | –
Cc1cc2c(C)n(Cc3ccc(Cl)cc3Cl)nc2c(C#N)c1C | – | > 61.9 | – | > 100 | – | > 100 | – | 68.4 | – | > 100 | – | – | – | – | > 100 | > 100 | > 100 | – | – | –
CCC1CN2CCc3cc(OC)c(OC)cc3C2CC1CC1c2cc(OC)c(OC)cc2CCN1C(=O)C1CCCN1C(=O)OCc1ccccc1 (stereo unspecified) | – | 28.3 | – | 29.9 | – | – | – | 38.6 | – | 31.9 | – | – | – | – | 30.6 | 36.5 | – | – | – | –
C=C1CC[C@@H]2[C@](C)(COC(C)=O)[C@@H](O)CC[C@@]2(C)[C@@H]1COc1ccc2ccc(=O)oc2c1 | 61.2 | > 100 | – | – | > 100 | > 100 | > 100 | > 100 | > 100 | > 100 | > 100 | > 100 | > 100 | > 100 | > 100 | > 100 | > 100 | > 100 | 87.4 | 26.3
O=C(O)C1(P(=O)(O)O)CC1 | – | > 100 | – | > 100 | – | > 100 | – | > 100 | – | > 100 | – | – | – | – | > 100 | > 100 | – | – | – | –
CCOC(=O)C(=O)Nc1c(CC)cccc1C(C)C | – | > 100 | – | > 100 | – | – | – | > 100 | – | > 100 | – | – | – | – | > 100 | > 100 | – | – | – | –
C=C1COC(/C=C(\C)CC/C=C(\C)CCl)C1 (stereo unspecified) | – | > 100 | – | > 100 | – | > 100 | – | > 100 | – | > 100 | – | – | – | – | > 100 | > 100 | – | – | – | –
O=C1C(=O)N(c2ccc(Cl)c(Cl)c2)C(=O)C(=O)C1c1nc2ccccc2s1 | – | > 100 | – | > 100 | – | > 100 | – | > 100 | – | > 100 | – | – | – | – | > 100 | > 100 | > 100 | – | – | –
